From patent US20120270183A1, “METHOD OF TREATING AND/OR PREVENTING CONDITIONS CAUSED BY MICROORGANISMS USING AN ORAL LIGHT DEVICE” (COLGATE-PALMOLIVE COMPANY, priority 2009, published 2012)
“Also recorded” adds a separate entry of the source.

Key:
biofilm of A. naeslundi = assay: Biofilm reduction by photosensitizer plus light; format: cell-based; settings: 0.1% photosensitizer in the presence of light
Procedure: Bacterial biofilms (24 h old) were treated with the photosensitizers or photo-triggered actives described in the tables below at a concentration less than their minimum inhibitory concentration (MIC). The actives were either pre-incubated before light exposure for 2 s to 15 min, typically less than 2 min, or administered at the same time the biofilm was exposed to the light. The bacteria were irradiated at a set wavelength for 2 s to 15 min (typically less than 2 min) at an energy dose between 1-450 J/cm^2. Optical power densities typically ranged from 1-500 mW/cm^2. Light was either pulsed or provided in one continuous light exposure. Pulsed light treatments were preferred for high optical energy treatments.
On a biofilm of A. naeslundi, the impact of four “photosensitizers” (0.1% concentration) in the presence of light was evaluated. MIC typically ranged from 0.0001% (w/v) to 1% (w/v). The percent biofilm reduction is tabulated below.

[1] = test system: TNFα of HEPM cells stimulated by IL-1β; assay: Cytokine (TNFα) concentration in IL-1β stimulated cell culture after light plus dye; format: cell-based, human; settings: Fast Green at 1000 ppm combined with light at 625 nm for 2 minutes, 9 mW/cm^2, 1.1 J/cm^2
Procedure: Cells used in this example include human embryonic palatal mesenchymal (HEPM) cells and oral keratinocytes OBA9 cells. The embodiments also can be used with other cells such as human gingival fibroblasts (HGF). Cells were seeded in 24-well plates and cultured until reaching a confluence above 80%. The confluent-stage cells were treated with stimulants such as IL-1β followed by light irradiation alone, or light irradiation combined with GRAS photosensitizing dye. The cells were either pre-incubated in photosensitizing dye before light exposure, or administered at the same time of light exposure. The cells were incubated in photosensitizing dyes for varied amounts of time, the concentration of photosensitizing dyes were varied, and the cell were irradiated with light for varied amounts of time per exposure, as well as irradiation either one time or multiple times, as described below. After irradiation, the cells were incubated at 37° C. The cell culture media was collected after a certain amount of time for cytokine analysis.
The results tabulated below reveal that visible light (various wavelength, 380-700 nm) alone and photosensitizing dye irradiated with visible light (various wavelength, 380-700 nm) have anti-inflammation effect. […]

Structure (SMILES)	Biofilm reduction compared to light alone (in words) (biofilm of A. naeslundi)	Effect on TNFα concentration (in words) [1]
COc1cc(S(=O)(=O)[O-])c(C)cc1N=Nc1c(O)ccc2cc(S(=O)(=O)[O-])ccc12.[Na+].[Na+] [Allura Red, Allura Red AC]	increased biofilm reduction compared to light alone	
CCN(Cc1cccc(S(=O)(=O)[O-])c1)c1ccc(C(=C2C=CC(=[N+](CC)Cc3cccc(S(=O)(=O)[O-])c3)C=C2)c2ccc(O)cc2S(=O)(=O)[O-])cc1.[Na+].[Na+] [Fast Green, Fast Green FCF]	increased biofilm reduction compared to light alone	can decrease pro-inflammation cytokine TNFα concentration; also recorded: can reduce concentration of TNFα
CN(C)c1ccc(C(=C2C=CC(=[N+](C)C)C=C2)c2c(O)c(S(=O)(=O)[O-])cc3cc(S(=O)(=O)[O-])ccc23)cc1.[Na+] [Lissamine Green B]	increased biofilm reduction compared to light alone	
Cc1cc2nc3c(=O)[nH]c(=O)nc-3n(C[C@H](O)[C@H](O)[C@H](O)CO)c2cc1C [Riboflavin]	increased biofilm reduction compared to light alone	
O=C([O-])C1=NN(c2ccc(S(=O)(=O)[O-])cc2)C(=O)C1N=Nc1ccc(S(=O)(=O)[O-])cc1.[Na+].[Na+].[Na+] (stereo not drawn) [Tartrazine]	increased biofilm reduction compared to light alone	
